The structures appear in SMILES notation. Converted amounts (≈) assume the structure as drawn. The source made the active and inactive calls. No cut-off for these calls is given here. A value given as a limit tells only on which side of the number the result lay.

Test [1] concerns the target T1, Beta-ketoacyl-ACP-synthase III (Plasmodium falciparum) (UniProt O77078).
T1 sequence (whole entry): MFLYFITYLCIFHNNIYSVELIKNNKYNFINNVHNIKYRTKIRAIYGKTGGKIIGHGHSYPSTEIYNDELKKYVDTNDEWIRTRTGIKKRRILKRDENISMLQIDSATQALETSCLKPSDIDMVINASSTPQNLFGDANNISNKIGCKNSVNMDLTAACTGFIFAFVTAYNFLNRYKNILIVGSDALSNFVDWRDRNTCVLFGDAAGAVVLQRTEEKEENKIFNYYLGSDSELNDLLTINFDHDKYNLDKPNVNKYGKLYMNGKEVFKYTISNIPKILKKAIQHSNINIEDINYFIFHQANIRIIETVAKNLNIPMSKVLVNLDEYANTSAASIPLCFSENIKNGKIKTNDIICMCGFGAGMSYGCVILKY
Kind of test: Inhibition of Plasmodium falciparum D6 KASIII at 100 uM.

Test [2] concerns Plasmodium falciparum. Kind of test: Antimalarial activity against Plasmodium falciparum D6. In kind it is functional, organism-based.
Test [3] concerns the target T2, 3-oxoacyl-[acyl-carrier-protein] synthase 3 (Escherichia coli, UniProt C3TDZ2).
T2 sequence (C3TDZ2 whole entry): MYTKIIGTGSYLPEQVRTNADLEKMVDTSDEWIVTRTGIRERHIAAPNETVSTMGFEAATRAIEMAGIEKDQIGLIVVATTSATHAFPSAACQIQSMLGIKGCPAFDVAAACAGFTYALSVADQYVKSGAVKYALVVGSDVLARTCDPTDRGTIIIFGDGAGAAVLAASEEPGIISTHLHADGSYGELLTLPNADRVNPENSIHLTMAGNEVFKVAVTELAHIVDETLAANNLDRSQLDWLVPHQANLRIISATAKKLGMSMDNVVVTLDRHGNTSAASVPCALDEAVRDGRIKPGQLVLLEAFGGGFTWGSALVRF
Kind of test: Inhibition of Escherichia coli FabH.

Test [4] addresses T3, Mycobacterial beta-ketoacyl-[acyl-carrier-protein] synthase III (Mycobacterium tuberculosis) (UniProt P9WNG3).
T3 sequence (whole entry): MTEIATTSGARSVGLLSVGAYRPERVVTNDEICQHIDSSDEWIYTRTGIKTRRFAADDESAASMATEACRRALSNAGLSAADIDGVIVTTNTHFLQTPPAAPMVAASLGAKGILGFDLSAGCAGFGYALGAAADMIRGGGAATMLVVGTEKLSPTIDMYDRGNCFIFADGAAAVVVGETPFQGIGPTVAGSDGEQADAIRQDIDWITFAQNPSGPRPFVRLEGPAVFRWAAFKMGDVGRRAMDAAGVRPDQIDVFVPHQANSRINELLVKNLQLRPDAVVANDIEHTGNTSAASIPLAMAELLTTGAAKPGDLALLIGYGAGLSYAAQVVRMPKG
The test is described as follows: Inhibition of Mycobacterium tuberculosis FabH at 100 uM.

Test [5] relates to Escherichia coli. The test is described as follows: Antibacterial activity against Escherichia coli expressing FabH. Format: functional.
Test [6] concerns Escherichia coli. Kind of test: Antibacterial activity against Escherichia coli. In kind it is functional.

A word on the IC50: it is the concentration that gives 50% inhibition. A lower IC50 goes with inhibition by little substance. Take `O=C1SCCN1Cc1ccc(Oc2ccc(C3CCCC3)cc2)cc1`: the result in test [1] and in test [4] was inactive. For the same molecule, the figures for the IC50 in test [2] and in test [3] were 11.1 µM and 14.4 µM, respectively.

On to `CN1CCSC1=S`, for which the outcome in test [1] and in test [4] was inactive. Also, the IC50 in test [2] and in test [3] was > 100 µM throughout.

Turning to `O=C1SCCN1Cc1cccnc1`, the outcome in test [1] and in test [4] was inactive. Moreover, the IC50 in test [2] amounted to 78.4 µM; in test [3], 20.7 µM.

Turning to `O=C1N(Cc2ccc(Oc3ccccc3)cc2)CCS1(=O)=O`, the result in test [1] and in test [4] was inactive. Further, the IC50 in test [2] worked out at 49.4 µM; in test [3], 0.9 µM.

As for `S=C1SCCN1Cc1ccccc1`, the result in test [1] and in test [4] was inactive. Moreover, the IC50 in test [2] was 61.6 µM; in test [3], > 100 µM.

With `CCCN1CCS(=O)(=O)C1=O`, the result in test [1] and in test [4] was inactive. Moreover, the IC50 in test [2] and in test [3] was > 100 µM throughout.

Regarding `S=C1SCCN1CCc1ccccc1`, the result in test [1] and in test [4] was inactive. Further, the IC50 in test [2] is 55.5 µM; in test [3], > 100 µM.

For `CN1CCS(=O)(=O)C1=O`, the result in test [1] and in test [4] was inactive. Further, the IC50 in test [2] and in test [3] was > 100 µM throughout.

The MIC is the least concentration at which growth counts as inhibited. `O=C1N(Cc2ccccc2)CCS1(=O)=O`: the MIC in test [5] and in test [6] was 6.6 µg/mL (≈ 29.3 µM) in each case. Moreover, the result in test [1] and in test [4] was inactive. The IC50 stood at 67.6 µM in test [2] and 1.1 µM in test [3].

Turning to `S=C1SCCN1Cc1cccnc1`, the outcome in test [1] and in test [4] was inactive. Besides, the IC50 in test [2] was 73.4 µM; in test [3], > 100 µM.

Consider `S=C1SCCN1Cc1ccc(Oc2ccccc2)cc1`, for which the outcome in test [1] and in test [4] was inactive. Also, the IC50 in test [2] was 55.6 µM; in test [3] it was > 100 µM.

With `O=C1N(Cc2ccc(Oc3ccc(C4CCCC4)cc3)cc2)CCS1(=O)=O`, the outcome in test [1] and in test [4] was inactive. Also, the IC50 is 10.8 µM in test [2] and 2.4 µM in test [3].

Take `O=C1SCCN1Cc1ccc(Oc2ccccc2)cc1`: the outcome in test [1] and in test [4] was inactive. For the same molecule, the values for the IC50 in test [2] and in test [3] were 67.1 µM and 10.9 µM, respectively.

Take `O=C1SCCN1Cc1ccccc1`: the result in test [1] and in test [4] was inactive. Besides, the IC50 in test [2] was 90.9 µM; in test [3], 13.7 µM.

As to `O=C1N(CCc2ccccc2)CCS1(=O)=O`, the result in test [1] and in test [4] was inactive. The values for the concentration for half-maximal inhibition (IC50) in test [2] and in test [3] were 21.6 µM and 1.9 µM, respectively. Besides, the MIC in test [6] came out at 16.5 µg/mL (≈ 69 µM).

With `CCCN1CCSC1=S`, the outcome in test [1] and in test [4] was inactive. The IC50 in test [2] and in test [3] was > 100 µM throughout.

Regarding `S=C1SCCN1Cc1ccc(Oc2ccc(C3CCCC3)cc2)cc1`, the result in test [1] and in test [4] was inactive. In addition, the IC50 in test [2] turned out to be 5.3 µM; in test [3], 17.7 µM.

(Values after ChEMBL document CHEMBL1146351, “Synthesis and biological evaluation of thiazolidine-2-one 1,1-dioxide as inhibitors of Escherichia coli beta-ketoacyl-ACP-synthase III (FabH)” (Bioorg Med Chem Lett, 2007).)
